Consider 2 compounds from patent US20180021303A1, “BKCA CHANNEL ACTIVATOR FOR TREATING MUSCULAR DISORDER” (Canbex Therapeutics Limited, priority 2015, published 2018).

Data set [1] has as its system Biozzi ABH mice with visible spasticity (relapsing progressive experimental autoimmune encephalomyelitis). Briefly: Spasticity (limb stiffness against a strain gauge) in Biozzi ABH mice with relapsing progressive experimental autoimmune encephalomyelitis. It is filed as in vivo, mouse. The note with it: result in words.
Method: BMS 204352 and NS 1619 were dissolved in ethanol:cremophor:phosphate buffered saline 1:1:18. […] Paxilline was used at 1 mg/kg, just below doses reported to cause tremors in mice.
Biozzi ABH were injected with mouse spinal cord homogenate in Freunds adjuvant on day 0 and day 7 based on published protocols (Al-Izki S. et al. Mult Scler Rel Dis. 2012; 1: 29-38 and relapsing progressive experimental autoimmune encephalomyelitis developed. Following the development of visible spasticity animals were randomly allocated to treatment groups and spasticity was assessed by measuring limb stiffness against a strain guage (Pryce G. et al. FASEB J. 28: 2014; 117-130).
Animals were injected with: • BMS 204352: 20 mg/kg i.p. n=11 (FIG. 1; Table 2); • NS 1619: 10 mg/kg i.p. n=13 (FIG. 2; Table 1); • NS 11021: 10 mg/kg i.p. n=13 (FIG. 3; Table 3) in ethanol:cremophor:PBS (1:1:18).
The conditions of data set [2]: from previously published data; cited from earlier work.
For data set [3] the following is noted: from previously published data; cited from earlier work. This is another data set of the same source.

For `COc1ccc(Cl)cc1[C@]1(F)C(=O)Nc2cc(C(F)(F)F)ccc21` [BMS 204352, (3S)-3-(5-chloro-2-methoxyphenyl)-3-fluoro-1,3-dihydro-6-(trifluoromethyl)-2H-Indol-2-one], the “Efficacy in a mouse model of spasticity in multiple sclerosis” value in data set [1] is reported as “effective”. Besides, the CNS penetration entry in data set [2] was “CNS penetrant”. The Tolerability result in data set [3] is recorded as “well tolerated”.

Turning to `O=c1[nH]c2cc(C(F)(F)F)ccc2n1-c1cc(C(F)(F)F)ccc1O` [NS 1619, 1,3-dihydro-1-[2-hydroxy-5-(trifluoromethyl)phenyl]-5-(trifluoromethyl)-2H-benzimidazol-2-one], the CNS penetration result in data set [2] was “CNS excluded”.
